Test results as given in patent US20110224210A1, “NOVEL BIS-AMIDES AS ANTI-MALARIAL AGENTS” (priority 2008, published 2011).

What follows are compounds tested on P. falciparum K1 (strain resistant to chloroquine and pyrimethamine), erythrocytic stages (assay: Plasmodium falciparum in vitro assay, [3H] hypoxanthine incorporation). Conditions: Plasmodium falciparum, K1, P. falciparum strain K1; [3H] hypoxanthine incorporation; read-out: IC50 (nM) on K1.
Type: cell-based
How it was run: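 Chloroquine/pyrimethamine-resistant K1 erythrocytic cultures (2.5% haematocrit, 0.3% parasitaemia, hypoxanthine-free RPMI with Albumax) exposed to seven doubling dilutions at 37 °C under low O2.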

IC50 [nM]	SMILES
28	CC(=O)N1CCN(c2ccc(CN(C(=O)C=Cc3ccc(C(F)(F)F)cc3)[C@@H](Cc3ccccc3)C(=O)N(C)CCOCCOCc3ccccc3)cc2)CC1 [Example 210, (S)-N-[4-(4-Acetyl-piperazin-1-yl)-benzyl]-N-(1-{[2-(2-benzyloxy-ethoxy)-ethyl]-methyl-carbamoyl}-2-phenyl-ethyl)-3-(4-trifluoromethyl-phenyl)-acrylamide]
18	CC(=O)N1CCN(c2ccc(CN(C(=O)C=Cc3ccc(C(F)(F)F)cc3)[C@@H](Cc3ccccc3)C(=O)N(C)CCOCC#N)cc2)CC1 [Example 211, (S)-N-[4-(4-Acetyl-piperazin-1-yl)-benzyl]-N-{1-[(2-cyanomethoxy-ethyl)-methyl-carbamoyl]-2-phenyl-ethyl}-3-(4-trifluoromethyl-phenyl)-acrylamide]
20	C=CCOCCN(C)C(=O)[C@H](Cc1ccccc1)N(Cc1ccc(N2CCN(C(C)=O)CC2)cc1)C(=O)C=Cc1ccc(C(F)(F)F)cc1 [Example 212, (S)-N-[4-(4-Acetyl-piperazin-1-yl)-benzyl]-N-{1-[(2-allyloxy-ethyl)-methyl-carbamoyl]-2-phenyl-ethyl}-3-(4-trifluoromethyl-phenyl)-acrylamide]
72	CC(=O)N1CCN(c2ccc(CN(C(=O)C=Cc3ccc(C(F)(F)F)cc3)[C@@H](Cc3ccccc3)C(=O)N(C)CCOCC(N)=O)cc2)CC1 [Example 213, (S)-N-[4-(4-Acetyl-piperazin-1-yl)-benzyl]-N-{1-[(2-carbamoylmethoxy-ethyl)-methyl-carbamoyl]-2-phenyl-ethyl}-3-(4-trifluoromethyl-phenyl)-acrylamide]
23	CC(=O)N1CCN(c2ccc(CN(C(=O)C=Cc3ccc(C(F)(F)F)cc3)[C@@H](Cc3ccccc3)C(=O)N(C)CCOCc3ccccn3)cc2)CC1 [Example 214, (S)-N-[4-(4-Acetyl-piperazin-1-yl)-benzyl]-N-(1-{methyl-[2-(pyridin-2-ylmethoxy)-ethyl]-carbamoyl}-2-phenyl-ethyl)-3-(4-trifluoromethyl-phenyl)-acrylamide]
86	CC(=O)N1CCN(c2ccc(CN(C(=O)C=Cc3ccc(C(F)(F)F)nc3)[C@@H](Cc3ccccc3)C(=O)N(C)CCOCc3ccccn3)cc2)CC1 [Example 215, (S)-N-[4-(4-Acetyl-piperazin-1-yl)-benzyl]-N-(1-{methyl-[2-(pyridin-2-ylmethoxy)-ethyl]-carbamoyl}-2-phenyl-ethyl)-3-(6-trifluoromethyl-pyridin-3-yl)-acrylamide]
32	CC(=O)N1CCN(c2ccc(CN(C(=O)C=Cc3ccc(C(F)(F)F)nc3)[C@@H](Cc3ccccc3)C(=O)N(C)CCOCC#N)cc2)CC1 [Example 217, (S)-N-[4-(4-Acetyl-piperazin-1-yl)-benzyl]-N-{1-[(2-cyanomethoxy-ethyl)-methyl-carbamoyl]-2-phenyl-ethyl}-3-(6-trifluoromethyl-pyridin-3-yl)-acrylamide]
40	C=CCOCCN(C)C(=O)[C@H](Cc1ccccc1)N(Cc1ccc(N2CCN(C(C)=O)CC2)cc1)C(=O)C=Cc1ccc(C(F)(F)F)nc1 [Example 218, (S)-N-[4-(4-Acetyl-piperazin-1-yl)-benzyl]-N-{1-[(2-allyloxy-ethyl)-methyl-carbamoyl]-2-phenyl-ethyl}-3-(6-trifluoromethyl-pyridin-3-yl)-acrylamide]

The next lines start with the compound.

SMILES	IC50 [nM]
CC(=O)N1CCN(c2ccc(CN(C(=O)C=Cc3ccc(C(F)(F)F)nc3)[C@@H](Cc3ccccc3)C(=O)N(C)CCOCCOCc3ccccc3)cc2)CC1 [Example 216, (S)-N-[4-(4-Acetyl-piperazin-1-yl)-benzyl]-N-(1-{[2-(2-benzyloxy-ethoxy)-ethyl]-methyl-carbamoyl}-2-phenyl-ethyl)-3-(6-trifluoromethyl-pyridin-3-yl)-acrylamide]	94
CN(CCN(C)C(=O)[C@H](Cc1ccccc1)N(Cc1ccc(-c2ccccn2)cc1)C(=O)C=Cc1ccc(C(F)(F)F)cc1)Cc1ccc(Br)o1 [Example 219, (S)-N-[1-({2-[(5-Bromo-furan-2-ylmethyl)-methyl-amino]-ethyl}-methyl-carbamoyl)-2-phenyl-ethyl]-N-(4-pyridin-2-yl-benzyl)-3-(4-trifluoromethyl-phenyl)-acrylamide]	52
CN(CCN(C)C(=O)[C@H](Cc1ccccc1)N(Cc1ccc(-c2ccccn2)cc1)C(=O)C=Cc1ccc(C(F)(F)F)cc1)Cc1ccccc1 [Example 220, (S)-N-(1-{[2-(Benzyl-methyl-amino)-ethyl]-methyl-carbamoyl}-2-phenyl-ethyl)-N-(4-pyridin-2-yl-benzyl)-3-(4-trifluoromethyl-phenyl)-acrylamide]	29
CN(CCN(C)C(=O)[C@H](Cc1ccccc1)N(Cc1ccc(-c2ccccn2)cc1)C(=O)C=Cc1ccc(C(F)(F)F)cc1)Cc1ccc(Cl)nc1 [Example 221, (S)-N-[1-({2-[(6-Chloro-pyridin-3-ylmethyl)-methyl-amino]-ethyl}-methyl-carbamoyl)-2-phenyl-ethyl]-N-(4-pyridin-2-yl-benzyl)-3-(4-trifluoromethyl-phenyl)-acrylamide]	20
CN(CCN(C)C(=O)[C@H](Cc1ccccc1)N(Cc1ccc(-c2ccccn2)cc1)C(=O)C=Cc1ccc(C(F)(F)F)cc1)Cc1ccoc1 [Example 222, (S)-N-(1-{[2-(Furan-3-ylmethyl-methyl-amino)-ethyl]-methyl-carbamoyl}-2-phenyl-ethyl)-N-(4-pyridin-2-yl-benzyl)-3-(4-trifluoromethyl-phenyl)-acrylamide]	13
CN(CCN(C)C(=O)[C@H](Cc1ccccc1)N(Cc1ccc(-c2ccccn2)cc1)C(=O)C=Cc1ccc(C(F)(F)F)cc1)Cc1ccco1 [Example 223, (S)-N-(1-{[2-(Furan-2-ylmethyl-methyl-amino)-ethyl]-methyl-carbamoyl}-2-phenyl-ethyl)-N-(4-pyridin-2-yl-benzyl)-3-(4-trifluoromethyl-phenyl)-acrylamide]	25
CN(CCN(C)C(=O)[C@H](Cc1ccccc1)N(Cc1ccc(-c2ccccn2)cc1)C(=O)C=Cc1ccc(C(F)(F)F)cc1)Cc1ccccn1 [Example 224, (S)-N-(1-{Methyl-[2-(methyl-pyridin-2-ylmethyl-amino)-ethyl]-carbamoyl}-2-phenyl-ethyl)-N-(4-pyridin-2-yl-benzyl)-3-(4-trifluoromethyl-phenyl)-acrylamide]	29
CN(CCN(C)C(=O)[C@H](Cc1ccccc1)N(Cc1ccc(-c2ccccn2)cc1)C(=O)C=Cc1ccc(C(F)(F)F)cc1)Cc1cccs1 [Example 225, (S)-N-(1-{Methyl-[2-(methyl-thiophen-2-ylmethyl-amino)-ethyl]-carbamoyl}-2-phenyl-ethyl)-N-(4-pyridin-2-yl-benzyl)-3-(4-trifluoromethyl-phenyl)-acrylamide]	20
CN(CCN(C)C(=O)[C@H](Cc1ccccc1)N(Cc1ccc(-c2ccccn2)cc1)C(=O)C=Cc1ccc(C(F)(F)F)cc1)Cc1ccc(Cl)s1 [Example 226, (S)-N-[1-({2-[(5-Chloro-thiophen-2-ylmethyl)-methyl-amino]-ethyl}-methyl-carbamoyl)-2-phenyl-ethyl]-N-(4-pyridin-2-yl-benzyl)-3-(4-trifluoromethyl-phenyl)-acrylamide]	75
